# Data from article PMC10746103, “Development of a HPLC-MS/MS Method to Assess the Pharmacokinetics and Tumour Distribution of the Dimethylarginine Dimethylaminohydrolase 1 Inhibitors ZST316 and L-257 in a Xenograft Model of Triple-Negative Breast Cancer in Mice” (Molecules, 2023).
# Where “and” joins values, the source holds several entries; their conditions need not be identical. Identical values can stand only once. Entries after “also recorded” stand apart in the source; their conditions may differ.
# Tests used:
# [1] = Plasma pharmacokinetics of ZST316 and L-257 after intraperitoneal ZST316 in MDA-MB-231 xenograft mice (HPLC-MS/MS); format: in vivo, SCID mice
# Protocol: (§1) Six-week-old female severe combined immunodeficiency disease (SCID) mice (n = 24; Charles River Laboratories Italia S.r.L., Calco, Lecco, Italy), were housed under rigorous standards and handled under pathogen-free conditions in the Animal Care Facilities of the Mario Negri Institute for Pharmacological Research (Milan, Italy).
# (§2) Two ×10^6 (in 10 μL) MDA-MB-231 TNBC cells were transplanted into the mammary fat pad. Tumour growth was regularly monitored with a calliper and treatment with ZST316 was given when the tumour volume reached 400–500 mm^3. Mice received either a single dose (acute treatment) or a daily dose of ZST316 30 mg/Kg intraperitoneally for five days (chronic treatment).
# (§3) Plasma and tumour tissue (n = 3 mice/each time point) were sampled at 1, 8 and 24 h after treatment (on day 5 for the chronic treatment). To collect plasma, mice were anesthetized by isoflurane, the blood was drained from the retro-orbital plexus into heparinised tubes and centrifuged for 10 min at 4000× g at 4 °C. Tumours were collected and immediately frozen. Plasma and tumour samples were stored at −20 °C until analysis.
# To assay ZST316 and L-257, 10 μL of IS (ZST152 WS: 500 ng/mL) were added to 100 μL of study plasma samples, standards, and QCs in a polypropylene tube. The samples were then added with 10 μL of NH4COOH 50 mM, mixed and added with 400 μL CH3OH:0.1% HCOOH, vortex mixed again and centrifuged at 13,200 rpm for 10 min at 4 °C. The supernatant was transferred to a 1.5 mL Eppendorf tube, dried under nitrogen flow and reconstituted with 100 μL of mobile phase (MP) A:B (1:1, v/v). Finally, the samples were centrifuged at 13,200 rpm for 10 min at 4 °C and the supernatant transferred into vials for HPLC-MS/MS analysis.
# (§4) Reversed-phase chromatography was performed under gradient conditions with separation on a HILIC column, C18, 3 μm, 100 A, 2.1 × 150 mm, Waters (Milford, MA, USA), coupled with a 3 μm, 3.9 × 5.0 mm guard column of the same material at the flow rate of 0.2 mL/min. Gradient features were: 10% mobile phase (MP) A (NH4HCO2 10 mM, 10% CH3CN, 0.1% HCOOH) and 90% MP B (CH3CN, 0.1% HCOOH) as initial constant condition; then to 90% MP A in 6 min and constant condition for 1.5 min. Return to start condition in 0.5 min and conditioning for 5.5 min. Total run time: 13.5 min. Analyte detection and quantification were performed using tandem mass spectrometry (MS/MS) operating in positive ionization mode as previously reported for ZST316 and ZST152 [31].
# [2] = Tumour distribution of ZST316 and L-257 after intraperitoneal ZST316 in MDA-MB-231 TNBC xenograft (HPLC-MS/MS); format: in vivo, SCID mice; details: for time intra-tumour concentration remained above the IC50 and Ki values for DDAH1 inhibition: estimated
# Protocol: as §1, §2, §3
# Control MDA-MB-231 TNBC cell tumours were homogenized with NH4COOH 50 mM (1:4, w:v). The homogenate (90 μL) was spiked with 5 μL of ZST316 and L-257 working solutions prepared in the range of 100–10,000 ng/mL generating seven tumour calibration standards in the range 25–5000 ng/g. The calibration curve included also a blank and a zero blank standard plasma sample (processed with IS). To prepare QC samples, 90 μL of the homogenate was mixed with an appropriate amount of QC working solutions to obtain QC plasma samples at the nominal concentration of 75, 375, and 1250 ng/g.
# The procedure was similar to that described for plasma in Section 3.3.2.
# as §4
# [3] = Stability of ZST316 and L-257 in frozen plasma; format: in vitro ADME, mice; details: for Mean found value, Stability −20 °C / Accuracy (%), Stability −20 °C: plasma QC, one month at −20 °C; for Mean found value, Stability −20 °C: n=3; for Accuracy (%), Stability −20 °C: percent of nominal
# Protocol: The stability of ZST316 and L-257 in plasma was assessed by analysing QC samples containing both compounds after prolonged storage in the same conditions of the study samples.
# Stability was determined by analysing 3 QCs per concentration level immediately after the preparation, and 3 QCs per concentration level after one month of storage at −20 °C. The analytes were considered stable at each QC concentration when the freshly prepared samples and the stability test samples differed by no more than 15% from the nominal concentrations.
# DDAH1 = details: cited from earlier work
# [4] = acute (single dose) ZST316 30 mg/Kg i.p., 1 h
# [5] = acute ZST316 30 mg/Kg i.p., 1 h
# [6] = acute ZST316 30 mg/Kg i.p., 8 h
# [7] = acute ZST316 30 mg/Kg i.p., 8 h, n=3
# [8] = acute ZST316 30 mg/Kg i.p., 24 h
# [9] = acute ZST316 30 mg/Kg i.p., approximately estimated due to limited time points
# [10] = chronic (five-day) ZST316 30 mg/Kg i.p. daily, 1 h
# [11] = chronic (five-day) ZST316 30 mg/Kg i.p. daily, 24 h
# [12] = chronic ZST316 30 mg/Kg i.p. daily
# [13] = chronic ZST316 30 mg/Kg i.p. daily, day 5, 1 h
# [14] = chronic ZST316 30 mg/Kg i.p. daily, day 5, 8 h
# [15] = chronic ZST316 30 mg/Kg i.p. daily, day 5, 8 h, n=3
# [16] = chronic ZST316 30 mg/Kg i.p. daily, day 5, 24 h
# [17] = chronic ZST316 30 mg/Kg i.p. daily, approximately estimated due to limited time points
# [18] = range over acute and chronic treatment
compound,measurement,setting,value
COCCNC(N)=NCCC[C@H](N)C(=O)O [L-257],accumulation in plasma and tumour during chronic treatment,"[1]; ZST316 30 mg/Kg i.p. daily for five days, day 5 vs day 1",without accumulation; also recorded: no accumulation
same,mean plasma concentration,[1]; [4],2.02 µg/mL
same,Cmax,[1]; acute ZST316 30 mg/Kg i.p.,8.7 µM
same,Cmax plasma,[1]; acute ZST316 30 mg/Kg i.p.,2020 ng/mL
same,Plasma AUC1–24 h,[1]; acute ZST316 30 mg/Kg i.p.,0.061
same,Plasma AUC1–24 h,[1]; acute ZST316 30 mg/Kg i.p. (day 1),14.1 µg·h/mL
same,"plasma concentration, individual mice",[1]; [5],2610 ng/mL and 1700 ng/mL and 1760 ng/mL and 11.24 µM and 7.32 µM and 7.58 µM
same,"plasma concentration, individual mice",[1]; [6],272 ng/mL and 382 ng/mL and 2.16 µM and 1.17 µM and 1.65 µM and 502 ng/mL
same,mean plasma concentration,[1]; [7],385 ng/mL and 1.66 μM
same,"plasma concentration, individual mice",[1]; [8],38 ng/mL and 32.5 ng/mL and 47.8 ng/mL and 0.16 µM and 0.14 µM and 0.21 µM
same,half-life plasma,[1]; [9],4.2 h
same,mean plasma concentration,[1]; [10],1.60 µg/mL
same,mean plasma concentration,[1]; [11],0.06 µg/mL
same,Cmax,[1]; [12],6.89 µM
same,Cmax plasma,[1]; [12],1600 ng/mL
same,Plasma AUC1–24 h,[1]; [12],0.044
same,Plasma AUC1–24 h,[1]; chronic ZST316 30 mg/Kg i.p. daily (day 5),10.3 µg·h/mL
same,"plasma concentration, individual mice",[1]; [13],1600 ng/mL and 1500 ng/mL and 1710 ng/mL and 6.89 µM and 6.46 µM and 7.37 µM
same,"plasma concentration, individual mice",[1]; [14],249 ng/mL and 136 ng/mL and 0.90 µM and 1.07 µM and 0.59 µM and 209 ng/mL
same,mean plasma concentration,[1]; [15],198 ng/mL and 0.85 μM
same,"plasma concentration, individual mice",[1]; [16],58.8 ng/mL and 95.2 ng/mL and 29.1 ng/mL and 0.25 µM and 0.41 µM and 0.13 µM
same,half-life plasma,[1]; [17],5.3 h
same,half-life plasma,[1]; [18],4.2 to 5.3 h
same,measured concentration in unknown study plasma sample (Figure 2),"[1]; representative chromatogram, sample taken at 1 h after acute treatment (b8)",1710 ng/mL
same,mean intra-tumour concentration,[2]; [4],3.5 µg/g
same,mean intra-tumour concentration,"[2]; acute (single dose) ZST316 30 mg/Kg i.p., 24 h",0.04 µg/g
same,Cmax tumour,[2]; acute ZST316 30 mg/Kg i.p.,3.50 μg/g and 15.08 μM
same,tumour AUC,[2]; acute ZST316 30 mg/Kg i.p.,23.9 µg·h/g
same,"tumour concentration, individual mice",[2]; [5],3590 ng/g and 2810 ng/g and 4090 ng/g and 15.5 µM and 12.1 µM and 17.6 µM
same,"tumour concentration, individual mice",[2]; [6],225 ng/g and 1060 ng/g and 2.8 µM and 0.97 µM and 4.57 µM and 651 ng/g
same,mean tumour concentration,[2]; [7],645 ng/g and 2.78 μM
same,"tumour concentration, individual mice",[2]; [8],30.7 ng/g and 33.1 ng/g and 56.1 ng/g and 0.13 µM and 0.14 µM and 0.24 µM
same,half-life tumour,[2]; [9],3.6 h
same,time intra-tumour concentration remained above the IC50 and Ki values for DDAH1 inhibition,[2]; after acute ZST316 treatment,4 h
same,time intra-tumour concentration remained above the IC50 and Ki values for DDAH1 inhibition,[2]; after chronic ZST316 treatment,3.5 h
same,mean intra-tumour concentration,[2]; [10],3.24 µg/g
same,mean intra-tumour concentration,[2]; [11],0.10 µg/g
same,Cmax tumour,[2]; [12],3.24 μg/g and 13.96 μM
same,tumour AUC,[2]; [12],20.3 µg·h/g
same,"tumour concentration, individual mice",[2]; [13],3550 ng/g and 2810 ng/g and 3350 ng/g and 15.29 µM and 12.10 µM and 14.43 µM
same,"tumour concentration, individual mice",[2]; [14],413 ng/g and 403 ng/g and 326 ng/g and 1.78 µM and 1.74 µM and 1.40 µM
same,mean tumour concentration,[2]; [15],381 ng/g and 1.64 μM
same,mean tumour concentration,[2]; [16],97 ng/g
same,"tumour concentration, individual mice",[2]; [16],35.5 ng/g and 159 ng/g and < LOQ and 0.15 µM and 0.68 µM and 0.05 µM
same,mean tumour concentration,"[2]; chronic ZST316 30 mg/Kg i.p. daily, day 5, 24 h, n=3",0.30 µM
same,half-life tumour,[2]; [17],4.9 h
same,half-life tumour,[2]; [18],3.6 to 4.9 h
same,measured concentration in unknown study tumour sample (Figure 3),"[2]; representative chromatogram, sample taken at 24 h after acute treatment (b8)",30.7 ng/g
same,stability in frozen plasma,[3]; at least one month at −20 °C,stable
same,"Mean found value, Stability −20 °C",[3]; actual value 15.00 ng/mL,15.8 ng/mL
same,"Accuracy (%), Stability −20 °C",[3]; actual value 15.00 ng/mL,105.6%
same,"Mean found value, Stability −20 °C",[3]; actual value 75.00 ng/mL,75.7 ng/mL
same,"Accuracy (%), Stability −20 °C",[3]; actual value 75.00 ng/mL,101.0%
same,"Mean found value, Stability −20 °C",[3]; actual value 250.00 ng/mL,259.5 ng/mL
same,"Accuracy (%), Stability −20 °C",[3]; actual value 250.00 ng/mL,103.8%
same,Ki,DDAH1; dotted line in figures,7 µM
same,Ki expressed as concentration,DDAH1; equivalent of 7 μM,1.625 µg/mL
